Values of other authors, collected in PMC3437650 (Bioorganic & medicinal chemistry letters, 2008).

System: BBB choline transporter
Settings: ref 11b

Substance: N,N’-(1,12-dodecandiyl)-bis-pyridinium dibromide [bPiDDB]
- share of permeation into brain that uses the BBB choline transporter: ~ 90%
